Assay results taken from patent publication US10596190B2, “Method for reducing ototoxicity in pediatric patients receiving platinum-based chemotherapy” (priority 2017, dated 2020).
Read-outs that look alike come from different tables or passages of the source.

Tests used:
[1] = system: patients receiving Cisplatin chemotherapy for standard risk hepatoblastoma; format: in vivo, human
Source text: The control arm included cisplatin only treated patients and the test arm including cisplatin treated patients followed by administration of STS.
The primary end point of the study was the rate of Brock grade ≥1 hearing loss determined after end of trial treatment or at an age of at least 3.5 years, whichever was later. Secondary end-points included: response to preoperative chemotherapy, complete resection, complete remission, event free survival (EFS), overall survival (OS), toxicity as graded by CTCAE v 3.0, long-term renal clearance, and feasibility of central audiology review
• Pre-operative randomised 1:1 chemotherapy (4 courses of Cisplatin, with or without STS, every second week) • Surgical removal of all remaining tumour lesions.
For all patients, the pre-surgery courses were given on day 1, 15, 29 and 43 (exceptionally, if surgery was delayed, courses could also be given on day 57 and 71). Post-surgery courses were started as soon as possible, but within 21 days with two courses given on day 1 and 15. […] The following treatment schedules were followed:
Administration Pre-hydration • At least 3 hours pre-hydration with 2.5% dextrose/0.45% saline • Run at 200 ml/m2/hr (total volume 600 ml/m^2) Cisplatin infusion over 6 hours • Cisplatin in 0.9% sodium chloride. […]

[2] = in a solution of sodium chloride; cited from earlier work
[3] = system: small cell lung cancer cell cultures; details: cited from earlier work
[4] = system: pediatric patients receiving cisplatin; details: for Incidence of hearing loss / Hearing loss: 4 weeks; for Mean change in hearing threshold: baseline to 4 weeks after cisplatin, negative = better threshold
Source text: The study was designed as a multicentre, randomised, open-label, phase 3 clinical trial. Patients were enrolled at 38 participating Children's Oncology Group (COG) hospitals in the USA and Canada. Written consent or assent from participants or their legal guardians were obtained before registration. The study was approved by the US National Cancer Institute (NCI) Central Institutional Review Board and site institutional review boards. Co-enrollment onto a companion observational cohort study of ototoxicity grading scales was mandatory. Participants in the study were aged 1-18 years at study entry and were newly diagnosed with hepatoblastoma, germ cell tumour, medulloblastoma or CNS primitive neuroectodermal tumour, neuroblastoma, osteosarcoma, or other cancer types treated with cisplatin.
Key eligibility criteria included planned cumulative cisplatin dose of 200 mg/m^2 or more and infusion duration of 6 h or less; performance score of 50 or more by the Karnofsky (>16 years) or Lansky (≤16 years) scales; no previous cisplatin or carboplatin treatment; no known thiol hypersensitivity; and normal institutional laboratory values reflecting haematological, renal, and hepatic function. Normal hearing was required before enrolment as defined by hearing thresholds of 20 dB hearing level (HL) or less at 500-8000 Hz when measured with earphones or 25 dB HL or less when measured in the sound field, or as defined by brainstem auditory evoked response thresholds equivalent to behavioural thresholds of 20 dB HL or less. Previous cranial irradiation was initially not allowed but later permitted, provided hearing was normal, by a protocol amendment (Mar. 31, 2010) to augment trial recruitment. Patients were not eligible if they were registered on a cancer directed COG therapeutic study to avoid potential confounding of the primary aims by the ACCL0431 randomization.
The randomization was centrally computer-generated by the COG trial management system. Allocation was electronically concealed to all investigators, clinicians, and participants. Site research staff did the enrolment, entering eligibility confirmation and specification of stratification factors into the COG trial management system, and receiving the electronically generated allocation for the site. Randomization was 1:1 and was initially stratified into four groups defined by age (<5 years or ≥5 years) and duration of cisplatin infusion (<2 h or ≥2 h). Later, we added one separate stratum for eligible participants who had previously received cranial irradiation, irrespective of age or duration of cisplatin infusion. Randomization was masked for central reviewers of audiometry data, but was not placebo controlled for participants or treating clinicians to minimise complexity and cost for participating sites.
(§1) Cisplatin was administered as specified by each participant's cancer treatment plan. For participants randomly assigned to the control group, the cisplatin containing treatment regimen alone was to be administered. […] Concurrent use of other ototoxic drugs (eg, aminoglycosides and loop diuretics) was discouraged by protocol for all participants but captured in data reporting.
Hearing assessments were done at baseline, up to 8 days before each cisplatin course, 4 weeks after completion of the final cisplatin course, and 1 year later. Audiometry included measurement of bilateral pure tone air conduction thresholds at 500-8000 Hz with earphones or in the sound field using paediatric hearing assessment methods; otoscopy; immittance evaluation of middle ear function; and evoked otoacoustic emissions, if available. For participants unable to cooperate due to very young age, developmental disability, or medical status, brainstem auditory evoked response thresholds were to be measured instead.
Audiological testing was completed using standard clinical audiometers, middle ear analyzers, evoked potentials systems, and evoked otoacoustic emission OAE systems (if available).

[5] = cited from earlier work
[6] = system: pediatric patients receiving cisplatin
Source text: (§2) Secondary endpoints were frequency-specific hearing loss at 4 weeks (for 500 Hz, 1000 Hz, 2000 Hz, 4000 Hz, and 8000 Hz), haematological and renal toxicity, event free survival (defined as the time from study enrolment until disease relapse or progression, diagnosis of a second malignant neoplasm, or death, whichever came first), and overall survival (defined as the time from enrolment to death or last date confirmed alive). By protocol amendment on Mar.
We estimated the probability of remaining event free as a function of time post-enrolment using the method of Kaplan and Meier. We compared risk of event across groups defined by randomised regimen using the log-rank statistic. We generated relative hazard ratios (RHR) and 95% CIs by fitting a relative-risk regression model, using partial likelihood where the model contained the characteristic of interest as the only variable. We computed survival estimates as 3-year event-free survival and 3-year overall survival. We did a post-hoc analysis of event-free survival and overall survival by extent of disease using the same methods. We considered all eligible participants in the survival analyses by intention to treat. We did all statistical calculations using SAS (version 9.4) or Stata (version 14).

[7] = system: pediatric patients receiving cisplatin; experiment: Phase 3 trial of Example 1: haematological and renal toxicity, adverse events
Description: as §1, §2
For haematological and renal toxicity, denominators represent the number of participants who completed the required toxicity assessment during each cycle. For both types of toxicity, we assessed the hypothesis of no difference in incidence using a χ^2 test of proportions.

[8] = all eligible, 61 participants assigned

Compound: N.N.[Cl][Pt][Cl] [cisplatin]
- Patients having Brock grade 0 or little to no hearing loss ([1]; by treatment arm): below 40%
- Incidence rate of Brock ≥1 hearing loss ([1]; by treatment arm (cisplatin only or cisplatin followed by STS)): 67%
- Stability post dilution [2]: ≤ 7 days

Compound: sodium thiosulfate
- Effect of STS on cytotoxicity of etoposide ([3]; immediate or delayed addition of STS, incubation for 72 hours): no reduction of cytotoxicity
- Effect of STS on anti-tumor activity of doxorubicin, carmustine (BCNU), paclitaxel or methotrexate ([3]; similar studies): no reduction of anti-tumor activity
- Hearing loss (ASHA criteria), proportion of participants ([4]; 4 weeks after final cisplatin, all assessable participants (49 in STS group)): 28.6%
- Incidence of hearing loss ([4]; after cisplatin infusion of 2-6 h): 41.7%
- Incidence of hearing loss ([4]; after cisplatin infusion of less than 2 h): 16.0%
- Incidence of hearing loss ([4]; older patients (5 years or more)): 31.4%
- Incidence of hearing loss ([4]; participants younger than 5 years): 21.4%
- Hearing loss ([4]; post-hoc, eight irradiated participants excluded): 26.7%
- Hearing loss ([4]; stratum of previous cranial irradiation): 50%
- Change between groups (Control vs STS) in mean hearing threshold change ([4]; 500 Hz): 0.4
- Mean change in hearing threshold ([4]; 500 Hz): −1.5
- Change between groups (Control vs STS) in mean hearing threshold change ([4]; 1000 Hz): 0.4
- Mean change in hearing threshold ([4]; 1000 Hz): −0.7
- Change between groups (Control vs STS) in mean hearing threshold change ([4]; 2000 Hz): 1.8
- Mean change in hearing threshold ([4]; 2000 Hz): −1.2
- Change between groups (Control vs STS) in mean hearing threshold change ([4]; 4000 Hz): 8.5
- Mean change in hearing threshold ([4]; 4000 Hz): 1.1
- Change between groups (Control vs STS) in mean hearing threshold change ([4]; 8000 Hz): 7.3
- Mean change in hearing threshold ([4]; 8000 Hz): 9.7
- ASHA-defined hearing loss ([4]; at 1 year, post-hoc analysis): 28%
- Excreted unchanged in the urine ([5]; following IV injection): Up to 95%
- Biological half-life ([5]; in vivo): 0.65 hours
- Biological half-life, range dependent on dose ([5]; in vivo): 16.5-182 minutes
- Deaths, number [6, 8]: 17
- Events, number [6, 8]: 26
- Deaths, number ([6]; disseminated disease): 11
- Events, number ([6]; disseminated disease): 12
- Event-free survival vs control group ([6]; disseminated disease (n=47)): no difference
- Overall survival vs control group ([6]; disseminated disease (n=47)): significantly lower
- 3-year event-free survival ([6]; disseminated disease, post-hoc): 42%
- 3-year overall survival ([6]; disseminated disease, post-hoc): 45%
- 3-year event-free survival ([6]; entire sample): 54%
- 3-year overall survival ([6]; entire sample): 70%
- Event-free survival or overall survival vs control group ([6]; entire sample): no significant difference
- Deaths, number ([6]; localised disease): six
- Events, number ([6]; localised disease): 14
- Event-free survival or overall survival vs control group ([6]; localised disease (n=77)): no significant difference
- 3-year event-free survival ([6]; localised disease, post-hoc): 60%
- 3-year overall survival ([6]; localised disease, post-hoc): 83%
- Hypokalaemia (most common non-haematological adverse event), participant cycles ([7]; 25 of 147 participant cycles): 17%
- Aggregate nephrotoxicity, participant cycles affected ([7]; 37 of 147 participant cycles): 25%
- Grade 3-4 neutropenia, participant cycles ([7]; 117 of 177 participant cycles, irrespective of attribution): 66%
- Haematological toxicity, participant cycles affected ([7]; 137 of 177 participant cycles): 77%
- Serious adverse events reported, number ([7]; in 26 patients): 194
- Haematological serious adverse events, number ([7]; in vivo): 70
- Hypophosphataemia and hypokalaemia vs control group ([7]; in vivo): more common
- Increased creatinine or reduced glomerular filtration rate meeting CTCAE grade 3 threshold ([7]; in vivo): no cases
- Non-haematological serious adverse events, number ([7]; in vivo): 85
- Haematological serious adverse events deemed possibly related, number ([7]; of 70): four
- Haematological serious adverse events deemed unlikely related, number ([7]; of 70): 13
- Haematological serious adverse events deemed unrelated, number ([7]; of 70): 53
- Haematological serious adverse events probably or definitely related ([7]; of 70): none
- Non-haematological serious adverse events deemed possibly related, number ([7]; of 85): 11
- Non-haematological serious adverse events deemed unlikely related, number ([7]; of 85): 25
- Non-haematological serious adverse events deemed unrelated, number ([7]; of 85): 49
- Non-haematological serious adverse events probably or definitely related ([7]; of 85): none
- Serious adverse events deemed possibly related, number ([7]; of 194): 20
- Serious adverse events deemed unlikely related, number ([7]; of 194): 62
- Serious adverse events deemed unrelated, number ([7]; of 194): 112
- Serious adverse events probably or definitely related ([7]; of 194): none
- Serious adverse events: decreased platelet count, number ([7]; of 194, in 12 participants): 23
- Serious adverse events: decreased neutrophil count, number ([7]; of 194, in 14 participants): 26
- Serious adverse events: anaemia, number ([7]; of 194, in ten participants): 21
